Activity calls are given as the source filed them.
Columns and labels:
[1] = molecular target: T1, Trace amine-associated receptor 1 (Homo sapiens, UniProt Q96RJ0); assay: Counterscreen for agonists of the human trace amine associated receptor 1 (hTAAR1): Fluorescence-based cell-based high throughput dose response assay to identify hTAAR1 agonist that also desensitize TAAR1 receptor response.; type: functional
T1 sequence (Q96RJ0 whole entry): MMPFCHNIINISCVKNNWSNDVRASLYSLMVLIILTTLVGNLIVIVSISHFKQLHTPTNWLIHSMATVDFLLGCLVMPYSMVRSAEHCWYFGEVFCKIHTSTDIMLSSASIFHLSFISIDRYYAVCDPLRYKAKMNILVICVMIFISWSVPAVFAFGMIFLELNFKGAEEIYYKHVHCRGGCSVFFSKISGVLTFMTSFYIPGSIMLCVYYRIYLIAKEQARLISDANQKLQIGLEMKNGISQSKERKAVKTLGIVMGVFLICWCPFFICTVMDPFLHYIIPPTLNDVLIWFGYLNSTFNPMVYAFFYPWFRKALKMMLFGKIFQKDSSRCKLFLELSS

[2] = cells; type: functional, cell-based
[3] = cells; type: functional, cell-based; remark: listed apart in the source
[4] = molecular target: T1, Trace amine-associated receptor 1; assay: Fluorescence-based cell-based high throughput dose response assay to identify agonists of the human trace amine associated receptor 1 (TAAR1).; type: functional
[5] = molecular target: fMet-Leu-Phe receptor (Homo sapiens, UniProt P21462); assay: formyl peptide receptor binders – dose response (AID 519); type: functional
[6] = Trypanosoma cruzi growth suppression in host cells – NIH3T3 host cells, beta-gal luminescence, confirmation (AID 2044); type: functional, cell-based;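 also: intracellular parasites grown in NIH/3T3 mouse fibroblasts as host cells; luminescent beta-galactosidase reporter signal from transgenic T. cruzi replicating inside host cells; inhibitors lower the luminescence signal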
[7] = molecular target: T2, Methionyl-tRNA synthetase, putative (Trypanosoma brucei brucei, UniProt Q38C91); type: functional, Trypanosoma brucei brucei strain 927/4 GUTat10.1
T2 sequence (Q38C91 whole entry): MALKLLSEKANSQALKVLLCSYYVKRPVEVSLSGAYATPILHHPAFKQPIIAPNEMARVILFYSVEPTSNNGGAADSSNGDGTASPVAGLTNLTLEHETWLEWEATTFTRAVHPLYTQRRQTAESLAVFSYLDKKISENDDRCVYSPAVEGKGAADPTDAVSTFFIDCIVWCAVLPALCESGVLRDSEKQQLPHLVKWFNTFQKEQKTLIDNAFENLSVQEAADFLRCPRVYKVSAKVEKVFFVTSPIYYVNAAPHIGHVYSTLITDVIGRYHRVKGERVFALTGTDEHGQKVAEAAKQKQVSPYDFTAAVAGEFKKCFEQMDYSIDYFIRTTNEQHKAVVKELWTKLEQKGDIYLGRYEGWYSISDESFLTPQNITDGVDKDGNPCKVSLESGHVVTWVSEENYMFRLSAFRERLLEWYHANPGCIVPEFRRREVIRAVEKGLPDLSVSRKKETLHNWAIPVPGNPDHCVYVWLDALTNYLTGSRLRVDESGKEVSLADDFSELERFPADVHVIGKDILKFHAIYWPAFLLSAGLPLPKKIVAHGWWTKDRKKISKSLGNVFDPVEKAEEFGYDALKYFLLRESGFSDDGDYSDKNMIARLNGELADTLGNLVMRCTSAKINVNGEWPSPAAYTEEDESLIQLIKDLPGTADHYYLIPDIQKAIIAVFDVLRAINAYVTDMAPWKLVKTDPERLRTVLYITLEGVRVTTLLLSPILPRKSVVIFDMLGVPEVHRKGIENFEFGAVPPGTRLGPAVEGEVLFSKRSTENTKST

[8] = NIH3T3 cell viability loss – ATP luminescence, mouse fibroblasts, counter-screen, dose response (AID 2010); type: functional, cell-based;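 also: cells exposed to compound for about 90 hours before reading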
[9] = molecular target: T2, Methionyl-tRNA synthetase, putative; type: functional, Trypanosoma brucei brucei strain 927/4 GUTat10.1; remark: listed apart in the source
[10] = Counterscreen for inhibitors of Trypanosoma brucei methionyl tRNA synthetase (MetRS): Luminescence-based cell-based high throughput dose response assay to identify compounds that are cytotoxic to Jurkat human T lymphocyte cells.; type: functional
[11] = molecular target: Major prion protein (Homo sapiens, UniProt P04156); type: functional, cell-based
[12] = molecular target: Mitogen-activated protein kinase 10 (Homo sapiens, UniProt P53779); assay: Dose response biochemical screening assay for inhibitors of c-Jun N-Terminal Kinase 3 (JNK3). [Related pubchem assays: 746 ]
[13] = cells
[14] = Luminescence-based cell-based high throughput dose response assay to identify activators of the DAF-12 from the parasite S. stercoralis (ssDAF-12).; type: functional
[15] = molecular target: T3, Protein RecA (Mycobacterium tuberculosis, UniProt P9WHJ3); assay: Fluorescence Cell-Free Homogeneous Dose Retest to Identify Inhibitors of RecA-Intein Splicing Activity. [Related pubchem assays (depositor defined):AID2097, AID2223, AID489010, AID492950]; type: functional
T3 sequence (P9WHJ3 whole entry): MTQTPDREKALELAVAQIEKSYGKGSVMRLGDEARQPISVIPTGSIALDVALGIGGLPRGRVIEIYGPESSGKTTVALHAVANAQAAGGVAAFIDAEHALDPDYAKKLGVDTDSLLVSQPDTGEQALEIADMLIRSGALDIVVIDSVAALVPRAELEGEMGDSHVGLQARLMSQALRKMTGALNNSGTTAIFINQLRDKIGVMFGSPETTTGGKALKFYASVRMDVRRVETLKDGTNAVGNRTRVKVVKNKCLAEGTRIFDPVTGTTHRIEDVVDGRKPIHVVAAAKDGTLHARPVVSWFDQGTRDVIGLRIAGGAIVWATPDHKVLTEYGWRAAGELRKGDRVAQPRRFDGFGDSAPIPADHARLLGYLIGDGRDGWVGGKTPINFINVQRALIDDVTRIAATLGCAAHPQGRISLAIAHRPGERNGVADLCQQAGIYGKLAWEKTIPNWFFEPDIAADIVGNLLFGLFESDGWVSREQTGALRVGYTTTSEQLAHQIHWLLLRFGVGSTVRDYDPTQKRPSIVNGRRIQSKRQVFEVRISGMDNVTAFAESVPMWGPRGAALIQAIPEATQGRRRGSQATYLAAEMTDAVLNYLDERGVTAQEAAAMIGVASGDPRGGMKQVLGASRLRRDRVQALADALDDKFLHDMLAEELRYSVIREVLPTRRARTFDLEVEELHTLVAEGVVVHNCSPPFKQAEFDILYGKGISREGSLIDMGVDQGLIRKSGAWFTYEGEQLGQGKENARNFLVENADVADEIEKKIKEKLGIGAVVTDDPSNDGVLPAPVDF

[16] = system: HEK293; assay: NOD2 signaling inhibitors in MDP-stimulated cells, cell-based, uHTS, luminescence (AID 2001); type: functional; conditions: Homo sapiens
[17] = system: HEK293; assay: cells; type: functional, cell-based; conditions: Homo sapiens
[18] = system: HEK293; assay: inhibition of NOD1-driven NF-kB reporter – cell-based, luminescence, uHTS, primary screen (AID 1578); type: functional; conditions: Homo sapiens
[19] = system: HEK293; assay: cells; type: functional, cell-based; conditions: Homo sapiens; remark: listed apart in the source
[20] = molecular target: T4, Replicative DNA helicase DnaB (Mycobacterium tuberculosis, UniProt P9WMR3); assay: DnaB intein splicing inhibitors, dose response, biochemical, cell-free fluorescence (AID 449749); type: functional
T4 sequence (P9WMR3 whole entry): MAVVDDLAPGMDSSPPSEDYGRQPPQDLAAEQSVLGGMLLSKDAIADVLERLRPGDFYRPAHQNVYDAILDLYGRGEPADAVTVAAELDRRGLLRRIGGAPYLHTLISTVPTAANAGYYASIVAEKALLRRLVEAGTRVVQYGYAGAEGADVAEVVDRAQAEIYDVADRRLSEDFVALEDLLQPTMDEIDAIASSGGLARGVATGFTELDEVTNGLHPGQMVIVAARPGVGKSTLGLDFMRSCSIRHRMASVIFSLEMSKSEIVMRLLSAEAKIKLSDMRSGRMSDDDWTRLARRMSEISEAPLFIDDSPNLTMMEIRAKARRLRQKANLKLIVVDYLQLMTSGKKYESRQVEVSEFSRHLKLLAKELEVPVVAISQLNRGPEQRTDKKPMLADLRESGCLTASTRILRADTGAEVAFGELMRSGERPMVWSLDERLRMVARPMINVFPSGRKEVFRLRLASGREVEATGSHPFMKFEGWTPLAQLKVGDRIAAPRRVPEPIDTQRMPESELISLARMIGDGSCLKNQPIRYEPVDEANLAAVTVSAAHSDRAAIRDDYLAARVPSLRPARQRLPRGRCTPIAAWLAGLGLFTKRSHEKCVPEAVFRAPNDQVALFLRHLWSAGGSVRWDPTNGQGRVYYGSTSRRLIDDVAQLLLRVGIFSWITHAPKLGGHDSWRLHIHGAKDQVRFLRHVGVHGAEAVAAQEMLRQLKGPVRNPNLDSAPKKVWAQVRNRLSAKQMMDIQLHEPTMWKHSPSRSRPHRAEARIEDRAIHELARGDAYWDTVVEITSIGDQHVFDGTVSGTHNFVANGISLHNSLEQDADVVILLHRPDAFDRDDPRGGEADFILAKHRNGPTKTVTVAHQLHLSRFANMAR

[21] = system: HEK293; assay: cells; type: functional, cell-based; conditions: Homo sapiens; remark: listed apart in the source
[22] = molecular target: Nucleotide-binding oligomerization domain-containing protein 2 (Homo sapiens, UniProt Q9HC29); assay: inhibition of NOD2-driven NF-kB reporter – cell-based, luminescence, uHTS, HEK293 (AID 1566); type: functional
Chain of Nucleotide-binding oligomerization domain-containing protein 2 (Q9HC29 whole entry, the tested form may be a part): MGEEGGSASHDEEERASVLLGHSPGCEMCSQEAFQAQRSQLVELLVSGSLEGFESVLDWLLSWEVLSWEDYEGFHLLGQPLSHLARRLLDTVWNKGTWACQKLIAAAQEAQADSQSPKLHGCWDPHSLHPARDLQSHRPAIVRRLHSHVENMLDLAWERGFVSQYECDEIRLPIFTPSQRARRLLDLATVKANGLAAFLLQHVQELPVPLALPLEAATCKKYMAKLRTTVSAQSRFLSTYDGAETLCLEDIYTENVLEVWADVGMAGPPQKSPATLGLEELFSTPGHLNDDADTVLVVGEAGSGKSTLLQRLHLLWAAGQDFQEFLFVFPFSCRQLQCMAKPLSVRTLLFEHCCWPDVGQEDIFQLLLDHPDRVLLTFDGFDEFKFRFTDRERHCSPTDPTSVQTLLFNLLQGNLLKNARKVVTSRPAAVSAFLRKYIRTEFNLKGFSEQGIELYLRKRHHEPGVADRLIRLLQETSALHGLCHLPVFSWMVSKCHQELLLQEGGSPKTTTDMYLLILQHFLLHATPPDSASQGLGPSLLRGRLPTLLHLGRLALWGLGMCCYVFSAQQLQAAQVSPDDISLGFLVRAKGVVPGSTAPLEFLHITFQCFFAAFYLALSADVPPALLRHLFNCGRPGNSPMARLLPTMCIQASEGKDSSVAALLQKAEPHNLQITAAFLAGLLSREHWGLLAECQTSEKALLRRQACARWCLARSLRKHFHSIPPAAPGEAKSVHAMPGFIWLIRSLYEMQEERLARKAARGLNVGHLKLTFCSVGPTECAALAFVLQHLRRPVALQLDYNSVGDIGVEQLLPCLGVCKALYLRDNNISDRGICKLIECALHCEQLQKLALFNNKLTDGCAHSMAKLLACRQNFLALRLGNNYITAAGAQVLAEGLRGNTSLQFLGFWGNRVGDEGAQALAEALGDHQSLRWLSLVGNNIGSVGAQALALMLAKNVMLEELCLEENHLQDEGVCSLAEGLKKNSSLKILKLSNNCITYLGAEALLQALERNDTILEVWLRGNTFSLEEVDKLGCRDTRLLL

Chain of fMet-Leu-Phe receptor (P21462 whole entry): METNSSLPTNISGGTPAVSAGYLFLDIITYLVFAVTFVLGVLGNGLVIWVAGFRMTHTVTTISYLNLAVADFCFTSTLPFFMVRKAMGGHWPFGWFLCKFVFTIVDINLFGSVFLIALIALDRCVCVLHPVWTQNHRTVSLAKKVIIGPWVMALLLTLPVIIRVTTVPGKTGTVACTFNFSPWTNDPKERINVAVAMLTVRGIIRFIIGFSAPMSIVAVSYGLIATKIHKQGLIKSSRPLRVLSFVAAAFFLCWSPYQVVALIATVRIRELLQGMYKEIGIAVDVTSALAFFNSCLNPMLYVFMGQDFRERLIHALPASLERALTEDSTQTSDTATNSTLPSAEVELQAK
Chain of Mitogen-activated protein kinase 10 (P53779 whole entry): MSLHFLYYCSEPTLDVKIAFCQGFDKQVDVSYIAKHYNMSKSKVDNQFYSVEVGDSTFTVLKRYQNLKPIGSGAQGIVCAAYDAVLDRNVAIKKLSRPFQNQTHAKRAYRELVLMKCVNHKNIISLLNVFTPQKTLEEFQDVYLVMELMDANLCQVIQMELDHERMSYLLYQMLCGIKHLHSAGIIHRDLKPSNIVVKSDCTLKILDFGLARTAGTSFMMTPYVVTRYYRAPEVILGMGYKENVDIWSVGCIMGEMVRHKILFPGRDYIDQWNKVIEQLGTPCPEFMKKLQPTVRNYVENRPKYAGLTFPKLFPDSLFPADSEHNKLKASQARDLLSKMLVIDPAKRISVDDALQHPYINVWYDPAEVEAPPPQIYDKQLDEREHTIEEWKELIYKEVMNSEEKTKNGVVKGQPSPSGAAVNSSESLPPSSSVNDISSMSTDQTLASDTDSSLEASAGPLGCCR

With `CC1=C(NCCc2ccccc2)CCC1=O` the IC50 [1] was 5.79 µM (active), the IC50 [2] was > 29.9 µM (inactive) and the EC50 [3] was > 29.9 µM (inactive). For the same compound, the EC50 [4] was 1.16 µM (active).

In the case of `COCCCN1C(=O)C(O)=C(C(=O)c2ccco2)C1c1ccccc1` (stereo unspecified), the Ki [5] is reported as 14.5 µM (active).

For `O=C(CCNS(=O)(=O)c1ccc(Br)s1)Nc1ccc(Cl)cc1`, the EC50 [6] was 3.44 µM (active), the IC50 [7] was 3.53 µM (active) and the EC50 [8] was > 60 µM (inconclusive). The IC50 [9] was 1.85 µM (active) and the IC50 [10] was 83.3 µM (inactive).

For `CSCCC(Nc1ncnc2ccc(Br)cc12)C(=O)O` (stereo unspecified), the IC50 [11] was 1.91 µM (active), the IC50 [12] was 45 µM (not active) and the IC50 [13] was > 138 µM (inactive).

For `COc1ccc2c(C)cc(SCC(=O)c3ccc4c(c3)OCO4)nc2c1`, the IC50 [14] was > 67.5 µM (inactive), the EC50 [6] was 1.53 µM (active) and the EC50 [8] was > 60 µM (not active).

For `S=C(NCCSCc1ccc(Cl)cc1)Nc1ccccc1`, the IC50 [7] was 8.52 µM (active), the IC50 [9] was 11.7 µM (inactive) and the IC50 [10] was 83.3 µM (inactive).

In the case of `Cc1cc(C(=O)CCl)c(C)n1CCc1ccccc1`, the EC50 [15] is reported as 24.4 µM (active), the IC50 [1] is reported as 9.06 µM (active) and the IC50 [16] is reported as 13.4 µM (inactive). The IC50 [17] was > 20 µM (inactive), the IC50 [2] was > 29.9 µM (inactive) and the EC50 [18] was 13.1 µM (active). The EC50 [3] was > 29.9 µM (inactive), the IC50 [19] was 18 µM (active) and the AC50 [20] was 16.9 µM (active). The EC50 [4] was 1.86 µM (active), the IC50 [21] was 5.94 µM (active) and the EC50 [22] was > 20 µM (inactive).

From ChEMBL document CHEMBL1201862, “PubChem BioAssay data set” (2004)
